Source: ChEMBL document CHEMBL1127421, “The synthesis and in vitro evaluation of a 99mtechnetium-nitroimidazole complex based on a bis(amine-phenol) ligand: comparison to BMS-181321” (J Med Chem, 1994)

Assays:
[1] = species on record: Rattus norvegicus; assay: Ratio in isolated cardiac myocytes under anoxic/oxic conditions; type: functional, cell-based
[2] = species on record: Rattus norvegicus; assay: In vitro evaluation of efficacy of BAPN in isolated cardiac myocytes under anoxia condition; type: functional, cell-based
[3] = species on record: Rattus norvegicus; assay: In vitro evaluation of efficacy of BAPN in isolated cardiac myocytes under normoxia condition; type: functional, cell-based
[4] = species on record: Rattus norvegicus; assay: In vitro evaluation of efficacy of BAPN in isolated cardiac myocytes under anoxic/oxic conditions; type: functional, cell-based
[5] = species on record: Bos taurus; assay: Compound was evaluated for permeability index in cultured bovine endothelial cell monolayer system; type: ADME; settings: cattle

| Substance | Ratio [1] | Retention [2] | Retention [3] | Ratio [4] | Permeability index [5] |
| --- | --- | --- | --- | --- | --- |
| 99m Tc-BAPN [listing 1 of 2 here] | 1.08 | 41.4% | 38.2% |  |  |
| 99m Tc-BMS 181321 [listing 1 of 2 here] | 3.03% |  | 17.6% | 3.03 |  |
| 99m Tc-BMS 181321 [listing 2 of 2 here] |  |  |  |  | 63.2 Pi |
| 99m Tc-BAPN [listing 2 of 2 here] |  |  |  |  | -0.25 Pi |
